The values that follow come from patent US11672870B2, “Transduction” (The University of Nottingham, priority 2013, dated 2023).

The subject of one assay is NIH3t3: LSL-eGFP cells. Put plainly: Cre recombination assay. Type of assay: cell-based, mouse. The settings on record: drug pre-treatment and co-treatment (FIG. 17a-d).
Another assay deals with NIH3t3 cells. Put plainly: Fluorescence delivery assay with membrane depletion, GAG competition, Heparinase, serum or Sodium Chlorate. The settings on record: for effect on cell-surface binding and transduction of HETD proteins: free GAG competition (FIG. 3b); for inhibition of PTD-only protein transduction: free GAG competition (FIG. 12). Type of assay: cell-based, mouse. The source says: For flow cytometry, cells were trypsinized (unless otherwise stated), fixed in 4% (w/v) PFA, resuspended in PBS (pH7.5) and analysed on a MoFlo™ DP (DAKO) Flow Cytometer using a 488 nm […] laser. (50,000 cells; gated on live cells by forward/side scatter). Median fluorescence was used for statistical analyses with background from unlabelled/transduced cells subtracted and values taken as ratios to the experimental control. Data shown are three experiments of triplicate samples. For microscopy, cultures were rinsed twice with PBS and imaged with inverted fluorescence microscope (Nikon Eclipse TS100).
For testing multiple cell lines we plated 2=10^5 cells/well (in 12-well plates) onto the surface relevant to the tested cell line, attached cells for 2 hours and transduced with recombinant proteins in cell-type specific growth media. After transduction cells were washed with PBS, trypsinized and fixed in 4% PFA for flow cytometry. For membrane localization, intracellular localisation or both we plated cells as above, but cultures pre-incubated in serum-free media for 1 hour before transduction. Membrane localization to assess cell interaction was achieved by a short transduction of 1 hour in serum-free media. Intracellular localization to assess transduction efficiency was achieved by a short transduction of 1 hour followed by 5 hour incubation in serum-free media only. Cell association (membrane and intracellular levels) were assessed by transducing cells for 6 hours in serum-free medium. For flow cytometry cells were trypsinized, washed and fixed in 4% PFA and for microscopy cells were imaged live after washing in PBS. For trypsin depletion of cell-surface proteins, cells were treated with trypsin/EDTA (Invitrogen) or EDTA-based cell dissociation solution (CDS) (Sigma) for 15 minutes at 37° C., followed by washes with PBS and 1× soybean trypsin inhibitor (10 mg/ml in PBS; Sigma). Cells were then treated with proteins for 1 hour at 37° C. in serum-free medium. For detergent depletion of cell membranes, cells were treated with PBS (pH7.5) containing 0.1% (v/v) Triton-X100 (Tx100) for 10 minutes at 37° C., followed by washes with PBS. Cells were then treated with proteins for 1 hour at 37° C. in serum-free medium. For GAG-treatment cells were pre-treated with GAGs in DMEM without serum before transduction and were included in the transduction media. This included heparin and chondroitin sulphate A, B and C (0-50 μg/ml).
For Heparin binding activity we incubated 1 ml of recombinant proteins (20 μg/ml) in DMEM with 50 μl of PBS-washed Heparin-sepharose beads (Sigma) for 1 hour at 37° C. shaking at 100 rpm. Media pre- and post-incubation was compared by fluorometry. For Heparinase treatment, we plated NIH3t3 cells at 2×10^5/well (in 12-well plates) and were pre-incubated in serum-free media for 1 hour with Heparinase III (0-1 U/ml) or Heparin (0-50 μg/ml). Cells were then washed and transduced with mR or P21-mR-8R (20 μg/ml in serum-free media or media with different FCS concentrations) containing Heparinase III or Heparin for 12 hours. FCS was depleted of P21-binding material by affinity chromatography. This was achieved by incubating 50 ml FCS with 2 ml Glutathione-Sepharose resin (GE Healthcare) pre-absorbed with GST-P21 protein expressed in Escherichia coli.

The next assay deals with NIH 3t3 fibroblast cells. Description: Iron oxide nanoparticle uptake (Prussian blue, iron assay). Format: cell-based. How it is done: Confluent cells were split into 12 well plates at 200,000 cells/well and incubated for 24 hours at 37° C. After 24 hours 50 μg of Nanomag-D iron oxide nanoparticles (250 nm) and either 0, 0.01, 0.05, 0.1, 0.5, 2, 1, 5 and 10 μM of cell penetrating peptide were added to the cells with either 10% FCS DMEM or serum free DMEM media and left for 24 hours for iron nanoparticles to be internalised. After incubation cells were washed in PBS to remove excess nanoparticles then harvested for qualitative Prussian blue staining, quantitative colorimetric iron assay or fluorescence activated flow cytometry.
Cells were labelled then fixed in 4% (w/v) PFA for 15-20 minutes at 4° C. A staining solution of 2.5% potassium ferrocyanide in 2.5% HCL was added to cells and incubated for an hour at room temperature. If nanoparticles were present a blue stain appeared which is proportional to the concentration of iron.
Quantitative Colorimetric Iron Assay Cells were labelled, trypsinised and pelleted then all media removed. 40 μl of 37% HCL was added to the cells and heated at 70° C. until dissolved, then neutralised with 50 μl of NaOH. Those samples containing a high concentration of iron were diluted 1:10 then 40 μl of Quantichrom working reagent was added and the instructions in the Quantichrom iron assay followed.

Take `N=C(N)NC(=O)c1nc(Cl)c(N)nc1N` [Amiloride]: in the assay on NIH3t3: LSL-eGFP cells, the “effect on functional delivery of HETD-tagged Cre” value (shortened to “effect on functional delivery”) is “dose-dependent reduction”. In the case of `C=C1[C@@H](C)[C@H]2[C@H](Cc3ccccc3)NC(=O)[C@]23[C@H](OC(C)=O)/C=C/[C@@](C)(O)C(=O)[C@@H](C)C/C=C/[C@H]3[C@@H]1O` [Cytochalasin D], in the assay with NIH3t3: LSL-eGFP cells, the “effect on functional delivery” value is given as “dose-dependent reduction”.

As to `[Na+].[O-][Cl+2]([O-])[O-]` [Sodium Chlorate], the “prevention of HETD-mediated protein delivery” value in the assay with NIH3t3 cells (inhibitor of HS synthesis (FIG. 14)) is recorded as roughly 7.6 fold. Take “Methyl-β-cyclodextrin [methyl-b-cyclodextrin]”: the “effect on functional delivery” value in the assay with NIH3t3: LSL-eGFP cells is reported as “dose-dependent inhibition”. Regarding Chondroitin sulphate [CS-C], in the assay on NIH3t3 cells, the “effect on cell-surface binding and transduction of HETD proteins” value (“effect … of HETD proteins” for short) was “little effect”; the “inhibition of PTD-only protein transduction” value was 4.1 fold. Turning to `C[C@@H]1[C@H](O)[C@@H](C)/C=C/C=C/CC/C=C/C=C/C=C/C=C/C(O[C@H]2O[C@H](C)[C@@H](O)[C@H](N)[C@@H]2O)CC2O[C@](O)(CC(O)C(O)CCC(O)CC(O)CC(O)CC(=O)O[C@H]1C)CC(O)C2C(=O)O` (stereo partly drawn) [nystatin], the “effect on functional delivery” value in the assay on NIH3t3: LSL-eGFP cells was “dose-dependent inhibition”. On to dextran, for which the “decrease in nanoparticle uptake” value with NIH 3t3 fibroblast cells (increasing concentration added to media, 1 μM P218R) is on record as 18%. In the case of Chondroitin sulphate [CS-A], the “effect … of HETD proteins” value in the assay on NIH3t3 cells was “little effect”.

Regarding Chondroitin sulphate [CS-B], in the assay with NIH3t3 cells, the “effect … of HETD proteins” value is “little effect”; the “inhibition of PTD-only protein transduction” value was determined as 2.4 fold. Regarding Heparin, in the assay with NIH3t3 cells, the “inhibition of PTD-only protein transduction” value came out at 8.1 fold. In addition, the “inhibition of transduction of HETD proteins” value in the assay with NIH3t3 cells (free GAG in media, P21-mR-8R 20 μg/ml (FIG. 3)) is listed as 99.8±2.1%. Moreover, the “effect on P21 binding and nanoparticle uptake” value in the assay with NIH 3t3 fibroblast cells (added to media) is “inhibitor for the binding”.

B1: heparinase III: HS-lyase enzyme (protein, UniProt Q59289 25-659, looked up)
Heparin-sulfate lyase: QSSSITRKDFDHINLEYSGLEKVNKAVAAGNYDDAAKALLAYYREKSKAREPDFSNAEKPADIRQPIDKVTREMADKALVHQFQPHKGYGYFDYGKDINWQMWPVKDNEVRWQLHRVKWWQAMALVYHATGDEKYAREWVYQYSDWARKNPLGLSQDNDKFVWRPLEVSDRVQSLPPTFSLFVNSPAFTPAFLMEFLNSYHQQADYLSTHYAEQGNHRLFEAQRNLFAGVSFPEFKDSPRWRQTGISVLNTEIKKQVYADGMQFELSPIYHVAAIDIFLKAYGSAKRVNLEKEFPQSYVQTVENMIMALISISLPDYNTPMFGDSWITDKNFRMAQFASWARVFPANQAIKYFATDGKQGKAPNFLSKALSNAGFYTFRSGWDKNATVMVLKASPPGEFHAQPDNGTFELFIKGRNFTPDAGVFVYSGDEAIMKLRNWYRQTRIHSTLTLDNQNMVITKARQNKWETGNNLDVLTYTNPSYPNLDHQRSVLFINKKYFLVIDRAIGEATGNLGVHWQLKEDSNPVFDKTKNRVYTTYRDGNNLMIQSLNADRTSLNEEEGKVSYVYNKELKRPAFVFEKPKKNAGTQNFVSIVYPYDGQKAPEISIRENKGNDFEKGKLNLTLTINGKQQLVLVP
B1: the “inhibition of GET/HETD-mediated transduction” value with NIH3t3 cells (at 1 U/ml, 6 h protocol) is reported as 97.2±3.4%.
